How the values were obtained:
rat [1] = conditions: Combined chronic toxicity/carcinogenicity; fischer; Dermal; Topical; dose end: 2 year; group: systemic; systemic / pathology microscopic / pituitary gland / adenoma
mouse [2] = conditions: Carcinogenicity, b6c3f1, Dermal, Topical, dose end: 2 year, group: systemic
rat [3] = conditions: Subchronic oral toxicity in rodents, fischer, Dermal, Topical, dose end: 13 week, group: systemic
mouse [4] = conditions: Prenatal developmental toxicity study, cd1, Injection, Intravenous, dose end: 12 GD
rat [5] = conditions: Prenatal developmental toxicity study, sprague dawley, Injection, Intramuscular, dose end: 13 GD, group: developmental
rat [6] = conditions: Subchronic oral toxicity in rodents, wistar, Feed, dose end: 13 week, group: systemic
mouse [7] = conditions: Subchronic oral toxicity in rodents, b6c3f1, Feed, dose end: 13 week, group: systemic, systemic / in life observation / body weight / body weight gain
rat [8] = conditions: Carcinogenicity, fischer, Oral, Feed, dose end: 103 week, group: systemic
rat [9] = conditions: Subchronic oral toxicity in rodents, fischer, Feed, dose end: 13 week, group: systemic, systemic / in life observation / body weight / body weight gain
mouse [10] = conditions: Carcinogenicity; b6c3f1; Oral; Feed; dose end: 103 week; group: systemic; systemic / pathology microscopic / kidney / vacuolization
rat [11] = conditions: Combined chronic toxicity/carcinogenicity, sprague dawley, Oral, Feed, dose end: 24 month, group: systemic
dog [12] = conditions: Subchronic oral toxicity in nonrodent, beagle, Feed, dose end: 90 day, group: systemic
rat [13] = conditions: Subchronic oral toxicity in rodents, sprague dawley, Feed, dose end: 90 day, group: systemic
rat [14] = conditions: Multigenerational reproductive toxicity study, sprague dawley, Oral, Feed, dose end: 2 generation
mouse [15] = conditions: Carcinogenicity; cd1; Oral; Feed; dose end: 78 week; group: systemic; systemic / pathology microscopic / kidney / nephropathy
rat [16] = conditions: Prenatal developmental toxicity study, sprague dawley, Oral, Gavage/Intubation, dose end: 17 GD
dog [17] = conditions: Chronic toxicity, beagle, Oral, Capsule, dose end: 52 week, group: systemic
rat [18] = conditions: Subchronic dermal toxicity, sprague dawley, Topical, dose end: 91 day, group: systemic, systemic / in life observation / clinical signs / erythema + systemic / in life observation / clinical signs / scabbing + systemic / in life…
rat [19] = conditions: Prenatal developmental toxicity study, sprague dawley, Oral, Gavage/Intubation, dose end: 15 GD
rat [20] = conditions: Prenatal developmental toxicity study, other, Oral, Gavage/Intubation, dose end: 15 GD
[21] = systemic / in life observation / body weight / body weight + systemic / in life observation / mortality / mortality
[22] = systemic / pathology microscopic / lung / congestion + systemic / pathology microscopic / pancreas / vacuolization + systemic / in life …
[23] = group: developmental, developmental / developmental malformation / general / [other] + systemic / in life observation / body weight / fetal weight
[24] = group: developmental, systemic / in life observation / body weight / fetal weight
[25] = group: maternal, reproductive / reproductive performance / resorptions / resorptions + systemic / in life observation / body weight / body weight gain + …
[26] = developmental / developmental malformation / mouth / jaw / cleft palate
[27] = developmental / developmental malformation / mouth / jaw / cleft palate + systemic / in life observation / body weight / fetal weight
[28] = systemic / in life observation / clinical signs / lack of coordination + systemic / in life observation / clinical signs / voluntary muscle …
[29] = systemic / in life observation / body weight / body weight gain + systemic / pathology microscopic / eye / cataract + systemic / pathology …
[30] = systemic / clinical chemistry / gamma glutamyl transferase (ggt) / gamma glutamyl transferase (ggt)
[31] = systemic / clinical chemistry / lipids / phospholipids
[32] = systemic / clinical chemistry / aspartate aminotransferase (ast/sgot) / aspartate aminotransferase (ast/sgot) + systemic / clinical …
[33] = systemic / clinical chemistry / cholesterol / cholesterol + systemic / clinical chemistry / lipids / phospholipids + systemic / hematology…
[34] = group: offspring, systemic / in life observation / body weight / offspring (pup) weight
[35] = group: parental, systemic / in life observation / body weight / body weight + systemic / in life observation / body weight / body weight gain + systemic / in…
[36] = group: developmental, developmental / developmental malformation / bone / [other]
[37] = group: developmental, developmental / developmental malformation / bone / [other] + developmental / developmental malformation / other / other + developmental / …
[38] = group: maternal, systemic / in life observation / body weight / body weight + systemic / in life observation / body weight / body weight gain + systemic / in…
[39] = systemic / in life observation / body weight / body weight gain + systemic / organ weight / liver / relative to body weight + systemic / …
[40] = group: maternal, systemic / in life observation / body weight / body weight
[41] = group: maternal, systemic / in life observation / body weight / body weight + systemic / in life observation / clinical signs / body surface staining + …
[42] = group: developmental, developmental / developmental malformation / bone / ossification sites + developmental / developmental malformation / bone / full …
[43] = group: maternal, systemic / in life observation / body weight / body weight + systemic / in life observation / food consumption / food consumption + systemic…

In the case of `OCCCl` [2-Chloroethanol], the LEL (rat [1]) is reported as 100 mg/kg/day, the LOAEL (rat [1]) is reported as > 100 mg/kg/day and the NEL (rat [1]) is reported as 50 mg/kg/day. The NOAEL (rat [1]) was ≥ 100 mg/kg/day, the LEL (mouse [2]; [21]) was 180 mg/kg/day and the NEL (mouse [2]; [21]) was < 180 mg/kg/day. For the same compound, the LOAEL (mouse [2]; systemic / pathology microscopic / skin / inflammation + systemic / pathology microscopic / skin / ulcer) was 411 mg/kg/day, the NOAEL (mouse [2]; systemic / pathology microscopic / skin / inflammation + systemic / pathology microscopic / skin / ulcer + systemic / in life observation / …) was 180 mg/kg/day and the LOAEL (rat [3]; systemic / pathology microscopic / lung / congestion + systemic / pathology microscopic / pancreas / vacuolization) was 500 mg/kg/day. For the same compound, the NEL (rat [3]; [22]) was 125 mg/kg/day, the NOAEL (rat [3]; [22]) was 250 mg/kg/day and the LEL (rat [3]; systemic / pathology microscopic / pancreas / vacuolization + systemic / in life observation / mortality / mortality) was 250 mg/kg/day. The LOAEL (mouse [4]; [23]) was > 120 mg/kg/day, the NOAEL (mouse [4]; [23]) was ≥ 120 mg/kg/day and the LEL (mouse [4]; [24]) was 60 mg/kg/day. For the same compound, the NEL (mouse [4]; [24]) was < 60 mg/kg/day, the LEL (mouse [4]; [25]) was 120 mg/kg/day and the LOAEL (mouse [4]; [25]) was > 120 mg/kg/day. The NEL (mouse [4]; [25]) was 60 mg/kg/day and the NOAEL (mouse [4]; [25]) was ≥ 120 mg/kg/day.

In the case of `C[C@]12C=CC(=O)C=C1CC[C@H]1[C@@H]3C[C@@H](O)[C@](O)(C(=O)CO)[C@@]3(C)C[C@H](O)[C@@]12F` [Triamcinolone], the LEL (rat [5]; [26]) is reported as 10 mg/kg/day, the NEL (rat [5]; [26]) is reported as < 10 mg/kg/day and the LOAEL (rat [5]; [27]) is reported as > 40 mg/kg/day. The NOAEL (rat [5]; [27]) was ≥ 40 mg/kg/day.

`CC1(C)[C@H](C(=O)O[C@H](C#N)c2cccc(Oc3ccccc3)c2)[C@@H]1/C=C(\Cl)C(F)(F)F` [gamma-Cyhalothrin] was tested, and the LOAEL (rat [6]; [28]) was 6.6 mg/kg/day, the NEL (rat [6]; [28]) was 0.7 mg/kg/day and the NOAEL (rat [6]; [28]) was 3.4 mg/kg/day. It also gave an LEL (rat [6]; systemic / organ weight / liver / relative to body weight) of 3.4 mg/kg/day.

With `OC[C@@H](O)[C@@H](O)[C@H](O)[C@H](O)CO` [D-Mannitol] the LEL (mouse [7]) was > 7500 mg/kg/day, the LOAEL (mouse [7]) was > 7500 mg/kg/day and the NEL (mouse [7]) was ≥ 7500 mg/kg/day. For the same compound, the NOAEL (mouse [7]) was ≥ 7500 mg/kg/day, the LOAEL (rat [8]; systemic / in life observation / body weight / body weight gain) was 2500 mg/kg/day and the LEL (rat [8]; [29]) was 1250 mg/kg/day. The NEL (rat [8]; [29]) was < 1250 mg/kg/day, the NOAEL (rat [8]; [29]) was 1250 mg/kg/day and the LEL (rat [9]) was 2500 mg/kg/day. For the same compound, the LOAEL (rat [9]) was 2500 mg/kg/day, the NEL (rat [9]) was 1250 mg/kg/day and the NOAEL (rat [9]) was 1250 mg/kg/day. For the same compound, the LEL (mouse [10]) was 3750 mg/kg/day, the LOAEL (mouse [10]) was 3750 mg/kg/day and the NEL (mouse [10]) was < 3750 mg/kg/day. The NOAEL (mouse [10]) was < 3750 mg/kg/day.

For `CC(COc1ccc(Oc2ccccc2)cc1)Oc1ccccn1` (stereo not given) [Pyriproxyfen], the LEL (rat [11]; [30]) was 7.04 mg/kg/day, the NEL (rat [11]; [30]) was < 7.04 mg/kg/day and the NOAEL (rat [11]; systemic / clinical chemistry / gamma glutamyl transferase (ggt) / gamma glutamyl transferase (ggt) + systemic / in life observation / body …) was 35.1 mg/kg/day. For the same compound, the LOAEL (rat [11]; systemic / in life observation / body weight / body weight) was 183 mg/kg/day, the LEL (dog [12]; [31]) was 100 mg/kg/day and the NEL (dog [12]; [31]) was < 100 mg/kg/day. It also gave an NOAEL (dog [12]; systemic / pathology microscopic / liver / hypertrophy + systemic / clinical chemistry / alpha-1 globulin / alpha-1 globulin + systemic / …) of 100 mg/kg/day, an LOAEL (dog [12]; systemic / pathology microscopic / liver / hypertrophy + systemic / organ weight / liver / absolute + systemic / organ weight / liver / …) of 300 mg/kg/day and an LEL (rat [13]; [32]) of 23.5 mg/kg/day. For the same compound, the NEL (rat [13]; [32]) was < 23.5 mg/kg/day, the LOAEL (rat [13]; [33]) was 118 mg/kg/day and the NOAEL (rat [13]; [33]) was 23.5 mg/kg/day. The LEL (rat [14]; [34]) was 453 mg/kg/day, the LOAEL (rat [14]; [34]) was 453 mg/kg/day and the NEL (rat [14]; [34]) was 87 mg/kg/day. It also gave an NOAEL (rat [14]; [34]) of 87 mg/kg/day, an LOAEL (rat [14]; [35]) of 453 mg/kg/day and an NEL (rat [14]; [35]) of 18 mg/kg/day. The NOAEL (rat [14]; [35]) was 87 mg/kg/day, the LEL (rat [14]; group: parental, systemic / organ weight / liver / relative to body weight + systemic / pathology microscopic / kidney / inflammation + systemic / organ …) was 87 mg/kg/day and the LEL (mouse [15]) was 420 mg/kg/day. The LOAEL (mouse [15]) was 420 mg/kg/day, the NEL (mouse [15]) was 84 mg/kg/day and the NOAEL (mouse [15]) was 84 mg/kg/day. For the same compound, the LEL (rat [16]; [36]) was 300 mg/kg/day, the LOAEL (rat [16]; [36]) was 300 mg/kg/day and the NEL (rat [16]; [37]) was 100 mg/kg/day. For the same compound, the NOAEL (rat [16]; [37]) was 100 mg/kg/day, the LEL (rat [16]; [38]) was 300 mg/kg/day and the LOAEL (rat [16]; [38]) was 300 mg/kg/day. It also gave an NEL (rat [16]; [38]) of 100 mg/kg/day, an NOAEL (rat [16]; [38]) of 100 mg/kg/day and an LEL (dog [17]; systemic / in life observation / body weight / body weight gain + systemic / clinical chemistry / cholesterol / cholesterol + systemic / …) of 100 mg/kg/day. It also gave an LOAEL (dog [17]; systemic / in life observation / body weight / body weight gain + systemic / organ weight / liver / relative to body weight) of 300 mg/kg/day, an NEL (dog [17]; [39]) of 30 mg/kg/day and an NOAEL (dog [17]; [39]) of 100 mg/kg/day.

In the case of `Cc1cc(C)n(CO)n1` [(3,5-Dimethyl-1H-pyrazol-1-yl)methanol], the LEL (rat [18]) is reported as 50 mg/kg/day, the LOAEL (rat [18]) is reported as 50 mg/kg/day and the NEL (rat [18]) is reported as < 50 mg/kg/day. For the same compound, the NOAEL (rat [18]) was < 50 mg/kg/day, the LEL (rat [19]; [24]) was 400 mg/kg/day and the LOAEL (rat [19]; [24]) was 400 mg/kg/day. For the same compound, the NEL (rat [19]; [24]) was 200 mg/kg/day, the NOAEL (rat [19]; [24]) was 200 mg/kg/day and the LOAEL (rat [19]; [40]) was 100 mg/kg/day. For the same compound, the NOAEL (rat [19]; [40]) was < 100 mg/kg/day, the LEL (rat [19]; [41]) was 100 mg/kg/day and the NEL (rat [19]; [41]) was < 100 mg/kg/day. For the same compound, the LEL (rat [20]; [42]) was 150 mg/kg/day, the LOAEL (rat [20]; [42]) was 150 mg/kg/day and the NEL (rat [20]; [42]) was 75 mg/kg/day. The NOAEL (rat [20]; [42]) was 75 mg/kg/day, the LOAEL (rat [20]; group: maternal, systemic / in life observation / body weight / body weight + systemic / in life observation / food consumption / food consumption) was 150 mg/kg/day and the LEL (rat [20]; [43]) was 150 mg/kg/day. The NEL (rat [20]; [43]) was 75 mg/kg/day and the NOAEL (rat [20]; [43]) was 75 mg/kg/day.

— EPA's ToxRefDB 2
